“And” between values parts separate entries of the source, which are not always exact repeats. Identical values can stand only once. Toxic doses and inconclusive results are not listed.
System: BDF1 mice, B16 melanoma ip, median survival T/C
Assay: NCI In Vivo Anticancer Drug Screen. Data for tumor model B16 Melanoma (intraperitoneal) in B6D2F1 (BDF1) mice
Conditions: endpoint: median survival time, higher = longer survival
Outline: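 Read-out: survival or tumor size, given as treated/control ratio. Controls received vehicle only; animals bore transplantable tumors.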

[1] = dose: 6.25 mg/kg/injection, schedule: Q01DX009 (ip), vehicle: saline with Tween-80
[2] = dose: 12.5 mg/kg/injection, schedule: Q01DX009 (ip), vehicle: saline with Tween-80
[3] = dose: 25.0 mg/kg/injection, schedule: Q01DX009 (ip), vehicle: saline with Tween-80
[4] = dose: 50.0 mg/kg/injection, schedule: Q01DX009 (ip), vehicle: saline with Tween-80
[5] = dose: 100.0 mg/kg/injection, schedule: Q01DX009 (ip), vehicle: saline with Tween-80
[6] = dose: 100.0 mg/kg/injection, schedule: Q01DX009 (ip), vehicle: Klucel (hydroxypropylcellulose) (HPC)
[7] = dose: 200.0 mg/kg/injection, schedule: Q01DX009 (ip), vehicle: Klucel (hydroxypropylcellulose) (HPC)
[8] = dose: 400.0 mg/kg/injection, schedule: Q01DX009 (ip), vehicle: Klucel (hydroxypropylcellulose) (HPC)
[9] = dose: 25.0 mg/kg/injection, schedule: Q01DX009 (ip), vehicle: saline
[10] = dose: 50.0 mg/kg/injection, schedule: Q01DX009 (ip), vehicle: saline

Structure (SMILES): CCCCn1cnc2c(=S)nc[nH]c21
- T/C [1]: 93 % of control
- T/C [2]: 89 % of control
- T/C [3]: 95 % of control
- T/C [4]: 97 % of control

Structure (SMILES): O=C1CCC(=O)N1CO
- T/C (dose: 37.5 mg/kg/injection, schedule: Q01DX009 (ip), vehicle: saline): 107 % of control and 112 % of control
- T/C (dose: 75.0 mg/kg/injection, schedule: Q01DX009 (ip), vehicle: saline): 104 % of control and 107 % of control
- T/C (dose: 150.0 mg/kg/injection, schedule: Q01DX009 (ip), vehicle: saline): 109 % of control

Structure (SMILES): Cc1nnc(NS(=O)(=O)c2ccc(N=Nc3nc4[nH]c(N)nc(=S)c4[nH]3)cc2)s1
- T/C [3]: 112 % of control
- T/C [4]: 100 % of control
- T/C [5]: 92 % of control

Structure (SMILES): CC(CC#N)OC(=O)c1cccc([N+](=O)[O-])c1 (stereo unspecified)
- T/C [6]: 88 % of control
- T/C [7]: 99 % of control
- T/C [8]: 91 % of control

Structure (SMILES): CCC(C)C(C(=O)O)c1ccccc1 (stereo unspecified)
- T/C [5]: 107 % of control
- T/C (dose: 200.0 mg/kg/injection, schedule: Q01DX009 (ip), vehicle: saline with Tween-80): 99 % of control
- T/C (dose: 400.0 mg/kg/injection, schedule: Q01DX009 (ip), vehicle: saline with Tween-80): 93 % of control

Structure (SMILES): C1OC1CO[C@@H]1CO[C@H]2[C@@H]1OC[C@H]2OCC1CO1 (stereo partly specified)
- T/C (dose: 12.5 mg/kg/injection, schedule: Q01DX009 (ip), vehicle: saline): 94 % of control
- T/C [9]: 94 % of control
- T/C [4]: 87 % of control
- T/C [10]: 115 % of control
- T/C [5]: 97 % of control
- T/C (dose: 100.0 mg/kg/injection, schedule: Q01DX009 (ip), vehicle: saline): 104 % of control
- T/C (dose: 100.0 mg/kg/injection, schedule: Q04DX003 (ip), vehicle: saline with Tween-80): 116 % of control
- T/C (dose: 200.0 mg/kg/injection, schedule: Q01DX009 (ip), vehicle: saline): 326 % of control
- T/C (dose: 266.0 mg/kg/injection, schedule: Q04DX003 (ip), vehicle: saline with Tween-80): 104 % of control
- T/C (dose: 400.0 mg/kg/injection, schedule: Q01DX009 (ip), vehicle: saline): 327 % of control
- T/C (dose: 600.0 mg/kg/injection, schedule: Q04DX003 (ip), vehicle: saline with Tween-80): 109 % of control

Structure (SMILES): CCCCC(CCCC)c1ccccn1
- T/C [1]: 104 % of control
- T/C [2]: 108 % of control
- T/C [3]: 102 % of control

Structure (SMILES): Cc1ccc2nc(-c3cc(Br)ccc3O)c(-c3cc(Br)ccc3O)nc2c1
- T/C [6]: 90 % of control
- T/C [7]: 88 % of control

Structure (SMILES): O=C(CBr)CC(O)(C(F)(F)F)C(F)(F)F
- T/C (dose: 0.75 mg/kg/injection, schedule: Q01DX009 (ip), vehicle: saline): 100 % of control
- T/C (dose: 0.75 mg/kg/injection, schedule: Q04DX003 (ip), vehicle: saline): 97 % of control
- T/C (dose: 1.5 mg/kg/injection, schedule: Q01DX009 (ip), vehicle: saline): 105 % of control
- T/C (dose: 1.5 mg/kg/injection, schedule: Q04DX003 (ip), vehicle: saline): 100 % of control
- T/C (dose: 3.0 mg/kg/injection, schedule: Q01DX009 (ip), vehicle: saline): 94 % of control
- T/C (dose: 3.0 mg/kg/injection, schedule: Q04DX003 (ip), vehicle: saline): 100 % of control and 105 % of control

Structure (SMILES): O=S(=O)(O)c1ccc(Nc2ccccc2)cc1
- T/C [6]: 107 % of control and 97 % of control
- T/C [7]: 114 % of control and 88 % of control
- T/C [8]: 107 % of control and 100 % of control

Structure (SMILES): COc1cc(/C=C2/c3cc(Cl)ccc3-c3c(Cl)cc(Cl)cc32)cc(OC)c1OC
- T/C (dose: 0.2 mg/kg/injection, schedule: Q01DX009 (ip), vehicle: saline with Tween-80): 86 % of control
- T/C (dose: 0.4 mg/kg/injection, schedule: Q01DX009 (ip), vehicle: saline with Tween-80): 86 % of control
- T/C (dose: 0.8 mg/kg/injection, schedule: Q01DX009 (ip), vehicle: saline with Tween-80): 86 % of control

Structure (SMILES): Cc1c(N)nc(C(CC(N)=O)NCC(N)C(N)=O)nc1C(=O)NC(C(=O)NC(C)C(O)CC(=O)NC(C(=O)NC(OC1OC(C)C(N)C(O)C1O)C(O)c1nc(-c2nc(C(=O)NCCCC(N)CC(=O)NCCCNCCCCN)cs2)cs1)C(C)O)C(OC1OC(CO)C(O)C(O)C1OC1OC(CO)C(O)C(OC(N)=O)C1O)c1cnc[nH]1 (stereo unspecified)
- T/C (dose: 0.2 mg/kg/injection, schedule: Q01DX009 (ip), vehicle: saline): 113 % of control
- T/C (dose: 0.8 mg/kg/injection, schedule: Q01DX009 (ip), vehicle: saline): 90 % of control
- T/C (dose: 1.6 mg/kg/injection, schedule: Q01DX009 (ip), vehicle: saline): 101 % of control

Structure (SMILES): C=CCOP(=O)(N1CC1C)N1CC1C (stereo unspecified)
- T/C [9]: 95 % of control
- T/C [10]: 96 % of control
- T/C (dose: 50.0 mg/kg/injection, schedule: Q04DX003 (ip), vehicle: saline): 97 % of control
- T/C (dose: 100.0 mg/kg/injection, schedule: Q04DX003 (ip), vehicle: saline): 105 % of control

Source: PubChem BioAssay AID192 (DTP/NCI, 2004)
